#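 48-hour exposure; five concentrations; linearly interpolated endpoints. GI50 is the concentration that inhibits growth by half. TGI: concentration producing complete growth inhibition.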
# Tests used:
# Assay in all cases: NCI tumour cell line growth inhibition, 48 h
# CCRF-CEM leukemia = tested on: CCRF-CEM leukemia
# HOP-62 NSCLC = tested on: HOP-62 NSCLC
# M14 melanoma = tested on: M14 melanoma
# OVCAR-8 ovarian = tested on: OVCAR-8 ovarian
# SK-MEL-28 melanoma = tested on: SK-MEL-28 melanoma
# SR leukemia = tested on: SR leukemia
# A498 renal = tested on: A498 renal
# IGROV1 ovarian = tested on: IGROV1 ovarian
# MDA-MB-435 = tested on: MDA-MB-435
# T-47D breast = tested on: T-47D breast
SMILES,TGI (CCRF-CEM leukemia) [µM],TGI (HOP-62 NSCLC) [µM],TGI (M14 melanoma) [µM],TGI (OVCAR-8 ovarian) [µM],TGI (SK-MEL-28 melanoma) [µM],TGI (SR leukemia) [µM],TGI (A498 renal) [µM],TGI (IGROV1 ovarian) [µM],GI50 (CCRF-CEM leukemia) [µM],GI50 (HOP-62 NSCLC) [µM],GI50 (IGROV1 ovarian) [µM],GI50 (M14 melanoma) [µM],GI50 (MDA-MB-435) [µM],TGI (MDA-MB-435) [µM],GI50 (OVCAR-8 ovarian) [µM],GI50 (SK-MEL-28 melanoma) [µM],GI50 (SR leukemia) [µM],GI50 (T-47D breast) [µM],TGI (T-47D breast) [µM],GI50 (A498 renal) [µM]
COC(=O)C1=CC(=O)[C@@H]2CCCC[C@H]12,> 100,> 100,> 100,> 100,> 100,> 100,,,,,,,,,,,,,,
CSC1=Nc2ccccc2N=C(c2ccccc2)C1,58.9,> 100,> 100,> 100,> 100,> 100,> 100,> 100,,,,,,,,,,,,
COc1ccc(-c2cc(=O)c3cc(O)ccc3o2)c(OC)c1OC,70.6,> 100,> 100,,> 100,77.6,,> 100,,,,,,,,,,,,
COc1ccc2nc3ccccc3c(NCCN(CCCl)CCCl)c2c1,2.39,2.97,2.28,2.9,5.28,0.379,5.73,4.34,,,,,,,,,,,,
COc1c(B(O)O)cccc1-c1nc2c(F)cc3n[nH]c(C)c3c2c2c1CCCC2,> 50,> 50,8.93,> 50,> 38.8,> 24.3,,> 50,0.373,0.303,1.12,2.28,1.86,> 50,1.22,2.1,0.964,1.33,> 23.2,
COC(=O)C1=CCC2c3[nH]c4ccccc4c3CCN2C1 (stereo not drawn),> 354,> 354,,> 354,> 354,> 354,,> 354,,,,,,,,,,,,
COc1cc2c(cc1-c1coc3cc(O)ccc3c1=O)OCO2,> 100,33.3,> 100,40.1,> 100,,80.5,53.7,,,,,,> 100,,,,,65.6,
CC1=C(C(=O)Nc2ccc(C)cc2)C(c2cccc([N+](=O)[O-])c2)C(C(=O)Nc2ccc(C)cc2)=C(C)N1,50.7,89.4,49.2,> 100,> 100,65.6,55.3,66.8,,,,,,,,,,,,
Nc1n[nH]c2ccc([C@@H]3Nc4ccc5cn[nH]c5c4[C@H]4C5CCC(C5)[C@@H]34)cc12 (stereo partly drawn),> 100,> 70,> 100,> 100,> 100,> 100,0.777,62.2,0.343,0.485,0.579,0.317,,,0.606,1.05,0.361,0.402,> 100,0.181
CCOC(=O)C(=O)C(C#N)c1ccc(Cl)cc1 (stereo not drawn),,> 100,> 100,> 100,> 100,,> 100,> 100,,,,,,,,,,,,
CC1=CC[C@@H](C(C)(C)O)C[C@@H]1O,> 5000,> 5000,> 5000,> 5000,> 5000,> 5000,> 5000,> 5000,,,,,,,,,,,,
Cc1c(Cl)c(C)c(Cl)c(O)c1Cl,> 100,> 100,49.1,> 100,> 100,,68.7,> 100,,,,,,60.7,,,,,> 100,
N#C/C(=C\c1ccc[nH]1)C(=O)c1ccccc1,> 100,> 100,> 100,> 100,> 100,> 100,,,,,,,,,,,,,,
N#Cc1cccc(C2C(=O)c3ccc(C(=O)c4ccc5c(c4)C(=O)N(c4ccc(Oc6ccc(N7C(=O)c8ccc(C(=O)c9ccc%10c(c9)C(=O)N(c9cccc(C#N)c9)C%10=O)cc8C7=O)cc6)cc4)C5=O)cc3C2=O)c1 (stereo not drawn),> 100,> 100,> 100,> 100,> 100,,,> 100,,,,,,,,,,,,
Clc1ccccc1C1SCc2nc3ccccc3n21 (stereo not drawn),> 100,64.6,59.9,> 100,76.4,59.6,,> 100,,,,,,,,,,,,
O=C1c2ccc3c4c(ccc(c24)C(=O)N1CCNCc1ccccc1)C(=O)N(CCNCc1ccccc1)C3=O,> 100,4.57,3.27,4.26,7.13,,37.8,4.27,2.51,1.91,1.72,1.85,,,1.2,2.59,,1.64,3.57,15.6
CCCCCCCCCCCCCCCCCC[S+](C)CC (stereo not drawn),,,2.75,,3.71,,4.36,,,,,1.33,1.63,3.47,,1.67,,2.36,18.8,1.71
O=C(O)CCC1c2[nH]c3ccccc3c2CCN1Cc1ccccc1 (stereo not drawn),> 100,,> 100,> 100,> 100,> 100,> 100,> 100,,,,,,,,,,,,
CC(=O)N[C@@H](Cc1ccc(OP(=O)(O)O)cc1)C(=O)N[C@H]1CCC(=O)N2CCC[C@@H](C(=O)NC3CCc4ccccc43)N2C1=O (stereo partly drawn),> 25,> 25,> 25,> 25,> 25,,> 25,> 25,> 25,> 25,> 25,> 25,> 25,> 25,> 25,> 25,,> 25,> 25,> 25
CN1C2(c3ccccc3)C(C(=O)c3ccccc3)=C(C(=O)c3ccccc3)C1(c1ccccc1)c1c(-c3ccccc3)sc(-c3ccccc3)c12,> 100,> 100,> 100,> 100,> 100,> 100,> 100,> 100,,,,,,,,,,,,
CC(=O)Nc1ccc(C2=N/C(=C\c3ccc(Cl)cc3)C(=O)O2)cc1,71.7,> 100,56.2,> 100,> 100,61.2,> 100,> 100,,,,,,,,,,,,
C[C@]12CCc3nn(-c4ccccc4)nc3C1CC[C@@H]1C2CC[C@]2(C)C(=O)CCC12 (stereo partly drawn),> 100,> 100,> 100,> 100,> 100,> 100,,> 100,,,,,,,,,,,,

SMILES,TGI (CCRF-CEM leukemia) [µM],TGI (HOP-62 NSCLC) [µM],TGI (M14 melanoma) [µM],TGI (OVCAR-8 ovarian) [µM],TGI (SK-MEL-28 melanoma) [µM],TGI (SR leukemia) [µM],TGI (A498 renal) [µM],TGI (IGROV1 ovarian) [µM],GI50 (CCRF-CEM leukemia) [µM],GI50 (HOP-62 NSCLC) [µM],GI50 (IGROV1 ovarian) [µM],GI50 (M14 melanoma) [µM],GI50 (MDA-MB-435) [µM],TGI (MDA-MB-435) [µM],GI50 (OVCAR-8 ovarian) [µM],GI50 (SK-MEL-28 melanoma) [µM],GI50 (SR leukemia) [µM],GI50 (T-47D breast) [µM],TGI (T-47D breast) [µM],GI50 (A498 renal) [µM]
O=C(Cc1nc2ccccc2o1)C(=O)Nc1ccc(Cl)cc1Cl,,> 100,> 100,> 100,> 100,51.6,> 100,> 100,,,,,,,,,,,,
CC[As](CC)SCC1OC(OC(C)=O)C(OC(C)=O)C(OC(C)=O)C1OC(C)=O (stereo not drawn),18.4,38.3,24.7,31.9,15.7,75.4,38.9,33.8,,,,,,,,,,,,
O=C(NN1C(=O)CSC1c1c(Cl)cccc1Cl)C(O)c1ccccc1 (stereo not drawn),> 100,> 100,> 100,> 100,> 100,,> 100,> 100,43.7,> 100,40.8,35.7,25,> 100,52,63.7,,40.4,> 100,> 100
Fc1ccc(N=C2C=CC(=Nc3ccc(F)cc3)c3ccccc32)cc1,> 100,> 100,> 100,> 100,> 100,> 100,> 100,> 100,,,,,,,,,,,,
COc1ccc([C@@H]2OC(=O)C3C2C(=O)O[C@H]3c2ccc(OC)cc2)cc1 (stereo partly drawn),> 100,> 100,,> 100,> 100,> 100,> 100,> 100,,,,,,,,,,,,
CCc1ncc(CO)n1Cc1cccc2ccccc12,,> 100,> 100,> 100,> 100,,> 100,> 100,,,,,,> 100,,,,,> 100,
N#CCCN(c1ccc(C=O)cc1)S(=O)(=O)c1ccccc1,,> 100,> 100,> 100,> 100,> 100,> 100,> 100,,,,,,,,,,,,
CC#CC#C/C(=C/C=CC(=O)OC)SC,,,> 100,> 100,> 100,,> 100,> 100,,,,,,> 100,,,,,> 100,
COC(=O)c1c2c(c(C)[n+]([O-])c1C)C(=O)C(NCc1ccc(O)cc1)=CC2=O,4.35,4.57,3.12,6.47,4.36,6.51,2.92,3.78,1.6,1.96,1.59,1.55,1.68,3.19,1.08,2.26,1.83,,,1.31
COc1cc(N2CCC(N)CC2)ccc1Nc1ncc(Cl)c(-c2c[nH]c3ccccc23)n1,7.15,1.99,1.73,2.44,2.64,,0.386,2.23,2.17,0.389,0.405,0.373,0.266,1.77,1.13,1.31,,1.78,4.72,0.123
CCN(CC)C(=O)CC12CCCCC1=Nc1ccccc12 (stereo not drawn),> 100,> 100,> 100,> 100,> 100,,> 100,> 100,,,,,,,,,,,,
O=C(CC(=O)c1cccc([N+](=O)[O-])c1)C(=O)Nc1ccccc1,> 100,> 100,> 100,> 100,> 100,,> 100,> 100,,,,,,,,,,,,
CCN(CC)CC(O)c1cc(-c2ccc(Cl)cc2)nc2c(C)c(Cl)ccc12 (stereo not drawn),5.03,2.96,3.48,,3.17,,,2.36,2.21,1.57,1,1.91,1.74,3.29,,1.78,,1.59,3.12,
CN(C)c1ccc(/C=c2/c3cc(O)ccc3n3c2cc(-c2ccccc2)[n+]3C)cc1,4.1,4.37,2.89,2.03,2.36,4.41,> 100,1.47,,,,,,2.29,,,,,,> 100
Cc1ccccc1-n1c(CCl)nc2ccc(Br)cc2c1=O,4.78,56,22.8,27.1,32.5,> 24.9,60.8,33.1,,,,,,,,,,,,
O=C(CC1(O)C(=O)Nc2ccccc21)c1ccccc1O (stereo not drawn),,> 100,> 100,> 100,> 100,,> 100,> 100,,,,,,,,,,,,
CCc1ccccc1NC(=O)C(=O)C1C(=O)N(c2ccccc2)N=C1N (stereo not drawn),,> 100,> 100,> 100,> 100,,> 100,> 100,,,,,,,,,,,,
CC(C)C1=CC2=C(C(=O)C1=O)C13CCCC(C)(C)C1CC2OC3=O (stereo not drawn),33.1,,70.6,35.4,31.7,,52.2,32.2,,,,,,43.2,,,,,48.4,
CC1C(O)=C(O)c2ccccc2N1O (stereo not drawn),> 100,> 100,> 100,> 100,> 100,,> 100,> 100,,,,,,,,,,,,
CCn1ncc(N=O)c1N,> 100,> 100,> 100,> 100,> 100,> 100,,> 100,,,,,,> 100,,,,,> 100,
CCN(/N=C1\CC2C=CCN(C2)C(=O)Cc2c1[nH]c1ccccc21)S(=O)(=O)c1ccc(C)cc1 (stereo not drawn),> 100,,,> 100,,> 100,,> 100,,,,,,,,,,,,
COc1cc(C2CC(c3cccc(Nc4ccnc5cc(Cl)ccc45)c3)=NN2c2ccccc2)cc(OC)c1OC (stereo not drawn),> 100,> 100,> 100,> 100,> 100,> 100,,> 100,6.4,3.81,29.2,2.6,1.47,14.2,7.68,10.4,5.49,1.44,> 100,
